Series [1] deals with MMV007839-selected culture B (PfFNT Gly107Ser). In words: Parasite proliferation assay, MMV007839-selected culture B. It counts as cell-based, Plasmodium falciparum. The note with it: read-out: IC50 value, growth inhibition. How it is done:
(§1) Parasite proliferation was measured in 96-well plates using a fluorescent DNA-intercalating dye. The assays were initiated with erythrocytes infected with predominantly ring-stage parasites, and the starting parasitaemia was 0.5–1% and the haematocrit was 1%.
(§2) For MMV007839-selected culture A, the drug concentration was increased by 5 nM increments on Day 18, Day 21, and every two days thereafter. […] The cultures were provided with fresh medium and blood and diluted to reduce the parasitaemia as needed.

For series [2], the system named is MMV007839-selected culture A (PfFNT Gly107Ser). Description: Parasite proliferation assay, MMV007839-selected culture A. It counts as cell-based, Plasmodium falciparum. The note with it: for IC50: MMV007839-selected culture A, mean ± SEM, read-out: IC50 value, growth inhibition. The method, then: as §1, §2
For a further series, the system named is Dd2 parent parasites. Description: Parasite proliferation assay, Dd2 parent. It counts as cell-based, Plasmodium falciparum.
For another series, the system named is non-injected oocytes. It counts as cell-based, Xenopus laevis. The note with it: full range of inhibitor concentrations.
Series [3] relates to PfCRT (from the chloroquine-resistant Dd2 strain). Description: [3H]chloroquine uptake by Xenopus oocytes expressing PfCRT. The note with it: 1 μM and 4 μM; pH 5.5. It counts as cell-based, Plasmodium falciparum. An excerpt:
(§3) (PfCRT; from the chloroquine-resistant Dd2 strain) and on [^3H]hypoxanthine transport by oocytes expressing the P. falciparum equilibrative nucleoside/nucleobase transporter PfENT1 [27, 28].
The oocyte expression vectors containing PfFNT, PfENT1 and PfCRT were made previously. The Gly107Ser mutant form of PfFNT was generated through site-directed mutagenesis of the oocyte expression vector containing wild-type (3D7) PfFNT using primers 9 and 10 (S2 Table). Oocytes were harvested from adult female Xenopus laevis frogs and prepared as described previously. cRNA was made using the mMessage mMachine T7 transcription kit and the MEGAclear kit (Ambion) and microinjected into oocytes as outlined elsewhere. […] The uptake of radiolabelled substrates was measured 2–5 days post-injection at 27.5°C in ND96 buffer (containing 96 mM NaCl, 2 mM KCl, 1 mM MgCl2, 1.8 mM CaCl2, 10 mM MES and 10 mM Tris-base; pH-adjusted to the value specified in the relevant Figure legends). […] The oocytes were then transferred to separate wells of a 96-well plate, lysed with 10% SDS, and the radioactivity measured as described previously.
The data are averaged from four to five independent experiments (performed using oocytes from different frogs) and are shown + SEM. In B, the uptake of [^3H]hypoxanthine (0.36 μM) was measured over 30 min at pH 6.0. […]

The test system of series [4] is 3D7 P. falciparum trophozoites. Description: Cytosolic pH (pHcyt) measurement in BCECF-loaded saponin-isolated trophozoites.
The conditions of series [5]: ref [36]; cited from earlier work.
The target in another series is T1, native PfFNT (Plasmodium falciparum, UniProt O77389).
T1 construct: expressed in transfected cells; host or cells: Xenopus laevis oocytes (cRNA microinjected, 30 ng)
T1 sequence (O77389 whole entry): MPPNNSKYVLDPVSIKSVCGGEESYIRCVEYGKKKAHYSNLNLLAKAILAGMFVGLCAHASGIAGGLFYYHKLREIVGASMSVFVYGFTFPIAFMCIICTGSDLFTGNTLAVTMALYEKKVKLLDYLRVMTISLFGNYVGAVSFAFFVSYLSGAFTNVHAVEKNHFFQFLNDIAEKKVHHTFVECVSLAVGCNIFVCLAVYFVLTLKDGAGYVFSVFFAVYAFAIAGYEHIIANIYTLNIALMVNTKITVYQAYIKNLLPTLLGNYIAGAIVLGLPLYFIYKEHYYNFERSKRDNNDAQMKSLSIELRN
It counts as cell-based. The following applies: native PfFNT in Xenopus oocytes; pH 6.4, 27.5°C, 10 min; mean ± SEM, n = 4; read-out: IC50, inhibition of PfFNT-mediated L-[14C]lactate transport. The method, then: (§4) The PfFNT-mediated uptake of L-[^14C]lactate by oocytes expressing native PfFNT (black symbols) or oocytes expressing PfFNT^Gly107Ser (white symbols) was measured in the presence of a range of different concentrations of MMV007839 (A) and MMV000972 (B). […] To enable a visual comparison between the native PfFNT and PfFNT^Gly107Ser datasets, only part of the concentration range used for the latter is shown in the main panels. The insets show the data obtained for PfFNT^Gly107Ser over the full concentration range tested. In all cases, the data are averaged from four independent experiments (using oocytes from different frogs) and are shown ± SEM. The uptake was measured at 27.5°C over 10 min at pH 6.4 using 2.7 μM L-[^14C]lactate and 600 μM unlabelled L-lactate.
(§5) The oocyte expression vectors containing PfFNT, PfENT1 and PfCRT were made previously. […] The uptake of radiolabelled substrates was measured 2–5 days post-injection at 27.5°C in ND96 buffer (containing 96 mM NaCl, 2 mM KCl, 1 mM MgCl2, 1.8 mM CaCl2, 10 mM MES and 10 mM Tris-base; pH-adjusted to the value specified in the relevant Figure legends). […] The oocytes were then transferred to separate wells of a 96-well plate, lysed with 10% SDS, and the radioactivity measured as described previously.

For another series, the system named is 3D7 parasites. The following applies: cited from earlier work.
In another series the test system is PfENT1. Description: [3H]hypoxanthine uptake by Xenopus oocytes expressing PfENT1. It counts as cell-based, Plasmodium falciparum.
Source text: as §3
The oocyte expression vectors containing PfFNT, PfENT1 and PfCRT were made previously. The Gly107Ser mutant form of PfFNT was generated through site-directed mutagenesis of the oocyte expression vector containing wild-type (3D7) PfFNT using primers 9 and 10 (S2 Table). Oocytes were harvested from adult female Xenopus laevis frogs and prepared as described previously. cRNA was made using the mMessage mMachine T7 transcription kit and the MEGAclear kit (Ambion) and microinjected into oocytes as outlined elsewhere. The amount of cRNA injected (per oocyte) was 30 ng for PfFNT, 10 ng for PfENT1, and 20 ng for PfCRT. The uptake of radiolabelled substrates was measured 2–5 days post-injection at 27.5°C in ND96 buffer (containing 96 mM NaCl, 2 mM KCl, 1 mM MgCl2, 1.8 mM CaCl2, 10 mM MES and 10 mM Tris-base; pH-adjusted to the value specified in the relevant Figure legends). […] Each experiment used ten oocytes for each condition tested. The influx of the radiolabelled substrate was halted by removing the reaction buffer and washing the oocytes twice in ice-cold ND96 buffer (3.5 mL). The oocytes were then transferred to separate wells of a 96-well plate, lysed with 10% SDS, and the radioactivity measured as described previously.
The data are averaged from four to five independent experiments (performed using oocytes from different frogs) and are shown + SEM. In B, the uptake of [^3H]hypoxanthine (0.36 μM) was measured over 30 min at pH 6.0. […] The data are averaged from three to six independent experiments (performed using oocytes from different frogs) and are shown + SEM. […] (TIF) Click here for additional data file.

A further series has as its target T2, PfFNT^Gly107Ser (Plasmodium falciparum, UniProt O77389, G107S).
T2 construct: expressed in transfected cells; host or cells: Xenopus laevis oocytes (cRNA microinjected, 30 ng)
T2 sequence (O77389 1-309 G107S): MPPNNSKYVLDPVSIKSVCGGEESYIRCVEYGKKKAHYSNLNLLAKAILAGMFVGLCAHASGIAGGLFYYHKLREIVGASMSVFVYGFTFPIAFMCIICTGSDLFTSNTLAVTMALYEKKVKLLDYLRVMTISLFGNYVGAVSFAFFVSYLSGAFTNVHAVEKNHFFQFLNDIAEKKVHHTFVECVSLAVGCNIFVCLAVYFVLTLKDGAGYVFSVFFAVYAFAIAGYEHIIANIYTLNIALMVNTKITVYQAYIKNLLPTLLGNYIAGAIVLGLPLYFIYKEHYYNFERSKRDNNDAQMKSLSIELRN
Description: PfFNT-mediated L-[14C]lactate uptake by Xenopus oocytes expressing PfFNT Gly107Ser. The following applies: PfFNT Gly107Ser in Xenopus oocytes; pH 6.4, 27.5°C, 10 min; mean ± SEM, n = 4; read-out: IC50, inhibition of PfFNT-mediated L-[14C]lactate transport. The series is classed as cell-based. The method, then:
as §4, §5

The next series deals with Dd2 parental parasites. Description: L-[14C]lactate uptake by isolated Dd2 parental parasites. The following applies: pH 6.1, 4°C.
Series [6] concerns isolated 3D7 P. falciparum trophozoites. Description: L-[14C]lactate uptake by isolated 3D7 trophozoites. The following applies: pH 6.1, 4°C.
Series [7] has as its system PfFNT^Gly107Ser mutant parasites (MMV007839-selected culture B). Description: L-[14C]lactate uptake by isolated PfFNT Gly107Ser mutant parasites.
The mark [8] stands for this setting: ref [1] Van Voorhis et al. 2016, read-out: IC50 for killing of 3D7 parasites.

As usually defined, the IC50 is the concentration that inhibits the measured activity by half.

Entries after “also recorded” stand apart in the source; their conditions may differ. Where two headings read alike, the source gives them in different places.

Description for Dd2 parent parasites: Parasite proliferation was measured in 96-well plates using a fluorescent DNA-intercalating dye [45]. The assays were initiated with erythrocytes infected with predominantly ring-stage parasites, and the starting parasitaemia was 0.5–1% and the haematocrit was 1%.

Take `C[C@@H]1CC[C@H]2[C@@H](C)C(=O)O[C@@H]3O[C@@]4(C)CC[C@@H]1[C@]32OO4` [Artemisinin, reference compound]: the IC50 in [1] (Plasmodium falciparum) was 16.5 ± 0.4 nM; in [2] (Plasmodium falciparum), 22 ± 3.3 nM; in the series on Dd2 parent parasites (Plasmodium falciparum, DD2, read-out: IC50 value, growth inhibition), 15.6 nM. In addition, in series [2] (both MMV007839-selected cultures (A and B), P > 0.1), the “Response of MMV007839-selected cultures compared with Dd2 parental parasites” value is “not significantly different; also recorded: not affecting”.

Take `O=C1CC(O)(C(F)(F)C(F)(F)F)Oc2ccccc21` (centres unmarked) [MMV000972]: the IC50 in series [1] (MMV007839-selected culture B, mean ± SEM) was 59700 ± 1400 nM; at native PfFNT it was 50 ± 1 nM; with 3D7 parasites (ref http://www.mmv.org/research-development/malaria-box-supporting-information, read-out: IC50 against 3D7 parasites, other groups), 2600 nM; on PfFNT^Gly107Ser it was 6300 ± 900 nM; in [2] it was 59600 ± 400 nM; in the series on Dd2 parental parasites (read-out: IC50, inhibition of L-[14C]lactate uptake, Dd2 (parental) parasites, 20 s, mean ± SEM), 49 ± 14 nM. The IC50 with Dd2 parent parasites (Dd2 parent, mean ± SEM, read-out: IC50 value, growth inhibition) is 1800 ± 200 nM; in series [7] (read-out: IC50, inhibition of L-[14C]lactate transport, pH 6.1, 4°C, 20 s, mean ± SEM), 15200 ± 1900 nM. Moreover, the “Effect on L-[14C]lactate transport into control (non-injected) oocytes” value with non-injected oocytes is given as “no changes”. In addition, in series [3], the “Effect on transport of [3H]chloroquine via PfCRT” value was “not inhibiting”. Moreover, the “Lactate-induced abrupt acidification of parasite cytosol after pre-treatment” value in series [4] (2.5 μM pre-treatment, 10 mM L-lactate, 4°C) is “no such abrupt acidification”. In [4] (2.5 μM, 4°C, 10 mM L-lactate, mean ± SEM, n = 3), the “Rate of cytosolic acidification after addition of lactate” value was 0.015 ± 0.006 pH unit/min. For the same compound, the “Rate of cytosolic acidification before addition of lactate” value in series [4] (2.5 μM, 4°C, mean ± SEM, n = 3) is given as 0.012 ± 0.003 pH unit/min. Further, in series [4] (2.5 μM, glucose (22 mM) restored to glucose-deprived parasites, gradual alkalinisation after initial acidification of ~2 min), the “Cytosolic pH restored after restoration of glucose” value is “approximately 7.1”. Besides, the “Effect on cytosolic pH in glucose-containing medium” value in [4] (glucose-containing medium, 37°C (Fig 2B,C: 1 μM)) is reported as “cytosolic acidification”. Besides, the “Toxicity in Malaria Box toxicity testing” value in series [5] is recorded as “display toxicity in some assays”. Also, the “Inhibition of [3H]hypoxanthine uptake by PfENT1-expressing oocytes” value in the series on PfENT1 (1 μM and 4 μM, pH 6.0, 30 min) was “not inhibiting”. Besides, the “Effect on [3H]hypoxanthine uptake by PfENT1-expressing oocytes” value with PfENT1 (1 μM, P < 0.05) is “slight increase”. For the same compound, the “Fold increase of growth IC50 relative to Dd2 parent” value in series [2] (both MMV007839-selected cultures (A and B) vs Dd2 parent) is given as more than 30 fold. For the same compound, the “Inhibition of L-[14C]lactate influx” value in series [6] (0.5 μM, 20 s) is “complete inhibition”. For the same compound, the “Inhibition of L-[14C]lactate uptake” value in series [6] (2 μM, 20 s) was “complete inhibition”.

Consider `O=C(Nc1ccc(Cl)c(Cl)c1)Nc1ccc(Cl)c(Cl)c1` [MMV665852], for which, in the series on 3D7 parasites (setting [8]), the IC50 was 1160 nM.

In the case of `CCCCNc1nc(NC(C)(C)C)nc(NC(C)(C)C)n1` [MMV665864], in the series on 3D7 parasites (setting [8]), the IC50 is 710 nM.

Turning to `O=C(Nc1nc(-c2ccccn2)cs1)c1ccccc1Br` [MMV665909], the 50% inhibitory concentration (IC50) in the series on 3D7 parasites (setting [8]) was 1360 nM.

For the compound `O=C(Nc1ccc(F)c(Cl)c1)Nc1ccc(Cl)c(Cl)c1` [MMV665953], the 50% inhibitory concentration (IC50) in the series on 3D7 parasites (setting [8]) is 2060 nM.

Consider `O=C(Cc1ccccc1)NC(c1ccc(Cl)cc1)c1c(O)ccc2ccccc12` (centres unmarked) [MMV665972], for which, in the series on 3D7 parasites (setting [8]), the IC50 is 1140 nM.

As to `CCCCCCc1cc(O)c2c3c(c(=O)oc2c1)CCC(C)C3` (centres unmarked) [MMV665987], the IC50 in the series on 3D7 parasites (setting [8]) is 530 nM.

On to `O=C(NC(c1ccccc1)c1ccc2cccnc2c1O)c1ccccc1` (centres unmarked) [MMV666080], for which, in the series on 3D7 parasites (setting [8]), the concentration for half-maximal inhibition (IC50) was 1170 nM.

Turning to `O=C(O)c1cc([N+](=O)[O-])ccc1NCCCc1ccccc1` [NPPB, reference compound], the “Effect on rate of L-[14C]lactate influx” value is given as “reduced the rate” in the series on Dd2 parental parasites (100 μM, parental parasites) and “reduced the rate” in series [7] (100 μM, pH 6.1, 4°C). Also, the “L-[14C]lactate distribution ratio at 20 s” value in series [6] (50 μM, control (DMSO) 6.7 ± 0.4, mean ± SEM) is listed as 0.4 ± 0.1.

(Values after publication PMC5298231, “The Malaria Parasite's Lactate Transporter PfFNT Is the Target of Antiplasmodial Compounds Identified in Whole Cell Phenotypic Screens” (PLoS Pathogens, 2017).)
